# Earlier results in patent US4122157A, “Nitrofurantoin sustained release tablet” (Richardson-Merrell Inc., priority 1977, dated 1978).
# Conditions: background statement
structure (smiles),measurement,setting,value
"O=C1CN(N=Cc2ccc([N+](=O)[O-])o2)C(=O)N1 [Nitrofurantoin, 1-[(5-nitrofurfurylidene)amino]hydantoin]",tolerability in humans,,remarkably well tolerated in humans
same,most frequent adverse reactions,humans,"anorexia, nausea and emesis"
